Data as given in patent US10272055B2, “Therapeutic compounds and methods” (Regents of the University of Minnesota, priority 2014, dated 2019).
Entries after “also recorded” stand apart in the source; their conditions may differ. Read-outs that look alike come from different tables or passages of the source. Each block holds one compound with its values, some of them ahead of it.

Experiments:
MCF7 line = experiment: 14,15-EET protection against biguanide growth inhibition, MTT, MCF7; type: cell-based; settings: MCF-7, exogenous (±)-14,15-EET (1 uM)
Procedure: Cells were plated in complete media in the presence of serum (10% FBS) and cultured at 37° C. with 5% CO2 and treated with biguanides for 24 hours in the presence or absence of 1 uM 14,15-EET. Growth was then measured at 24 hour by MTT assay.

CYP3A4 epoxygenase = CYP3A4 epoxygenase (Homo sapiens, UniProt P08684); experiment: CYP3A4 Supersome epoxygenase assay: EET synthesis from arachidonic acid, LC-ESI-MS/MS; settings: for inhibition of CYP3A4-mediated EETs synthesis: CYP3A4 Supersome, arachidonic acid 60 uM, 30 minutes, 37 C
Procedure: Measurements are reported as percentage of control reactions performed with vehicle but no compound. A ^13C-EET recovery standard was used to control for recovery of EETs from extractions. […] EET measurements in these Supersome experiments are expressed as percentage of control reactions. Absolute EET measurements are determined by subtraction of regioisomer values in a baseline reaction lacking NADPH. Measurements were performed in triplicate and values are expressed as the mean±SD.
After the reaction, EETs were then extracted with 1 mL dichloromethane and reconstituted in methanol and analyzed by LC-ESI-MS/MS.

MCF-7 cell line = experiment: MTT growth assay, MCF-7 line; type: cell-based; settings: Homo sapiens, MCF7, 24 h, read-out: IC50, MCF-7 growth
Procedure: The growth of the MCF-7 line was measured by MTT assay at 24 hours. Cells were plated in complete media in the presence of serum (10% FBS) and cultured at 37° C. with 5% CO2 and treated with the biguanide or DMSO vehicle. Growth was measured at 24 hours by MTT assay.
Cells were plated in complete media in the presence of serum (10% FBS) and cultured at 37° C. with 5% CO2 and treated with HBB or DMSO vehicle. Growth was measured at 24 hours by MTT assay.

AMPK [1] = experiment: AMPK phosphorylation Western blot in MCF7; type: cell-based; settings: for AMPK phosphorylation relative to control: MCF7, 6 hours, metformin, buformin, phenformin 1 mM, HBB 20 uM
Procedure: Western blotting analysis was performed in triplicate.
Cells were plated in complete media in the presence of serum (10% FBS) and cultured at 37° C. with 5% CO2 and treated with biguanides for 6 hours before harvesting. Total protein was extracted and analyzed by Western-blotting with GAPDH as an internal control.
(§1) Cells were plated in complete media in the presence of serum (10% FBS) and cultured at 37° C. with 5% CO2 and treated with 14,15-EET or EtOH control for 24 hours before harvesting. Total protein was extracted and analyzed by Western-blotting with GAPDH as an internal control.

CYP3A4 nanodiscs = CYP3A4 nanodiscs (Homo sapiens, UniProt P08684); experiment: CYP3A4 nanodisc spin shift titration; type: binding; settings: no CPR; 156 uM and 1.1 mM metformin
MCF-7 xenograft = MCF-7 xenograft in nude mice; type: in vivo; settings: metformin 40 mg/kg/day in drinking water vs vehicle
Procedure: FIG. 3A. MCF-7 xenograft with 3×10^6 cells in the 2nd mammary fat pad on day 0. HBB (4 mg/kg ip daily) (ν) or PBS (ρ) treatment began on day 1. * indicates P<0.05. FIG. 3B. MDAMB-231 xenograft with 1×10^6 cells in the 2nd mammary fat pad on day 0. HBB (4 mg/kg ip daily) (ν) or PBS (ρ) treatment began on day 1. N=20 mice per arm for each study; error bars are SEM.
MCF-7 cells were implanted in the mammary fat pad of 4-5 week mice and treatment was initiated when tumor size was ≥15 mm^3 by 2 sequential measurements with randomized assignment to the treatment arms.
FIG. 44A. Nude mice were inoculated with 3×10^6 MCF-7 cells and treated with vehicle (Δ) HBB at the MTD (4 mg/kg/day ip) (▪). (* indicates P<0.05). Error bars are SEM. […] The dose limiting toxicity was weight loss. At the MTD there was a well-tolerated 4% reduction of weight at 42 days (P<0.0001; data not shown). FIG. 44B. Nude mice were inoculated with 1×10^6MDA-MB-231 cells and treated with HBB at the MTD (4 mg/kg/day ip).

CYP3A4 = CYP3A4 protein level in MCF7 cells; type: cell-based; settings: MCF7, metformin 1 mM, 48 hours
[2] = system: AA metabolism to EET in MCF-7 cells; experiment: EET regioisomer abundance in MCF-7 cells; type: cell-based; settings: 0.10 mM metformin, 6 h
MDA-MB-231 = experiment: MTT growth assay, MDA-MB-231 line; type: cell-based; settings: Homo sapiens, MDA-MB-231, 24 h, MTT assay at 24 hours, 10% FBS
Procedure: FIG. 30 illustrates HBB inhibits proliferation of MCF7 and MDA-MB-231 lines. Cells were plated in complete media in the presence of serum (10% FBS) and cultured at 37° C. with 5% CO2 and treated with HBB or DMSO vehicle. Growth was measured at 24 hours by MTT assay. Results were converted to percent growth of control and represented as mean±S.E. (n=8).

STAT3 = STAT3 phosphorylation Western blot in MCF7; type: cell-based
Procedure: Western blotting analysis was performed (C=control, M=metform and H=HBB).
Total protein was extracted and analyzed by Western-blotting with GAPDH as an internal control.

MCF7 = experiment: NAC protection against HBB growth inhibition, MTT, MCF7; type: cell-based; settings: MCF7, 0.1 mM or 1 mM NAC, at IC50 of HBB
Procedure: FIG. 34 illustrates that N-acetylcysteine (NAC) protects MDA-MB-231 but not MCF7 against HBB-mediated growth inhibition. Cells were plated in complete media in the presence of serum (10% FBS) and cultured at 37° C. with 5% CO2 and treated with HBB in the presence of NAC or PBS control. Growth was then measured at 24 hours by MTT assay. Results were converted to percent growth of control and represented as mean±S.E. (n=8).

AMPK [3] = experiment: AMPK phosphorylation Western blot in MDA-MB-231; type: cell-based; settings: MDA-MB-231, 1 uM 14,15-EET, 24 hours
Procedure: as §1, with “FIG. 38 illustrates that 14,15-EET inactivates AMPK in MCF7 line but not in MDA-MB-231 line. Cells” for “Cells”

Chain of CYP3A4 epoxygenase (P08684 whole entry): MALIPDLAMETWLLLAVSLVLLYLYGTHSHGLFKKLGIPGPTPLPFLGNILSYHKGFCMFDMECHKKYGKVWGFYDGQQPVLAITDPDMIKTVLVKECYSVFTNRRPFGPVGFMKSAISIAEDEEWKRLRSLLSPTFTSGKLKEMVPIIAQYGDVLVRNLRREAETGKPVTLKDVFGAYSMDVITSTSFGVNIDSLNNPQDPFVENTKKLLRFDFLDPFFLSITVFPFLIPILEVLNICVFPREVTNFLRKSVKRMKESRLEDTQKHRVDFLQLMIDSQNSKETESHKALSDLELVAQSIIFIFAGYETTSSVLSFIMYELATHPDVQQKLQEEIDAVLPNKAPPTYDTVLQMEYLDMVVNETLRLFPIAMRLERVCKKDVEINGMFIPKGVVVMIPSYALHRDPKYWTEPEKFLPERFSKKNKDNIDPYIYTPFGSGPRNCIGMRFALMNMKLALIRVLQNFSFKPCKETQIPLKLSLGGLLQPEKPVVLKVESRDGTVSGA
Chain of CYP3A4 nanodiscs (P08684 whole entry): as above

Compound: [H]/N=C(/N)N/C(=N/[H])NCCc1ccccc1 [phenformin, reference compound]
rescue of MCF-7 growth by 14,15-EET in the presence of the biguanide (MCF7 line): rescues the MCF-7 line; also recorded: partial rescue | inhibition of CYP3A4-mediated EETs synthesis (CYP3A4 epoxygenase): inhibit CYP3A4 epoxygenase | IC50 (MCF-7 cell line; MTT assay at 24 hours, 10% FBS): 8000 µM | AMPK phosphorylation relative to control (AMPK [1]): increased phosphorylation of AMPK

Compound: CN(C)C(=N)N=C(N)N [metformin, reference compound]
rescue of MCF-7 growth by 14,15-EET in the presence of the biguanide (MCF7 line): rescues the MCF-7 line; also recorded: partial rescue | inhibition of CYP3A4-mediated EETs synthesis (CYP3A4 epoxygenase): inhibit CYP3A4 epoxygenase; also recorded: significantly reduced EETs production | binding to CYP3A4 nanodiscs (CYP3A4 nanodiscs): binds to functional CYP3A4 epoxygenase nanodiscs | tumor growth, MCF-7 xenograft (MCF-7 xenograft): inhibits the MCF-7 xenograft | tumor growth, MCF-7 xenograft (MCF-7 xenograft; listed as Metformin): suppressed tumor growth | CYP3A4 protein level (CYP3A4): does not change CYP3A4 protein level | abundance of EET regioisomers [2]: reduced abundance | IC50 (MCF-7 cell line; MTT assay at 24 hours, 10% FBS): > 10000 µM

Compound: CCCCCCNC(=N)NC(=N)NCc1ccccc1.Cl [HBB-HCl, N1-hexyl-N5-benzyl biguanide hydrochloride]
rescue of MCF-7 growth by 14,15-EET in the presence of the biguanide (MCF7 line): partially inhibited | IC50 (CYP3A4 epoxygenase; IC50, inhibition of CYP3A4 epoxygenase): ~50 µM | IC50 (MDA-MB-231): 20 µM | concentration that inhibits STAT3 phosphorylation (STAT3): > 10 µM | fold more potent than metformin, inhibition of Stat3 phosphorylation (STAT3; vs metformin): > 100 fold | IC50 (MCF-7 cell line; MTT assay at 24 hours, 10% FBS): 20 µM | concentration that activates AMPK phosphorylation (AMPK [1]): > 10 µM | fold more potent than metformin, activation of AMPK phosphorylation (AMPK [1]; vs metformin): > 100 fold

IC50 (MCF-7 cell line; MTT assay at 24 hours, 10% FBS): > 150 µM
Compound: CCCCCCNC(=N)NC(=N)NCc1ncc[nH]1 [HIB 2-yl, N1-hexyl-N5-((1H-imidazol-2-yl)methyl)-biguanide]

Compound: CC(=O)N[C@@H](CS)C(=O)O [NAC, N-acetylcysteine]
protection by NAC against HBB-mediated growth inhibition (MCF7): failed to protect

IC50 (MCF-7 cell line; MTT assay at 24 hours, 10% FBS): 40 µM
Compound: CCCCCCNC(=N)NC(=N)NCc1ccncc1 [HPB, N1-hexyl-N5-(pyridin-4-ylmethyl) biguanidine]

Compound: CCCCCC1OC1CC=CCC=CCC=CCCCC(=O)O (racemic) [14,15-EET, (±)-14,15-epoxyeicosatrienoic acid, reference compound]
AMPK phosphorylation relative to control (AMPK [3]): no statistical significant change of AMPK phosphorylation | AMPK phosphorylation relative to EtOH control (AMPK [1]; MCF7, 1 uM 14,15-EET, 24 hours): decreased phosphorylation of AMPK

IC50 (MCF-7 cell line): > 10000 µM
Compound: CCCCNC(=N)NC(=N)N [buformin]
rescue of MCF-7 growth by 14,15-EET in the presence of the biguanide (MCF7 line): rescues the MCF-7 line; also recorded: partial rescue | AMPK phosphorylation relative to control (AMPK [1]): increased phosphorylation of AMPK
